# Measured values: US11840686B2, “Modulation of prekallikrein (PKK) expression” (Ionis Pharmaceuticals, Inc., priority 2013, dated 2023)
# Strand notation (5' to 3'): a small letter for the sugar, then the base; units joined by * are phosphorothioate-linked, units joined directly phosphodiester-linked; [ ] holds rarer units or linkages, { } end groups; capitals alone tell only the bases. e = 2'-O-(2-methoxyethyl) (MOE); [5mC] = 5-methylcytosine; d = 2'-deoxy (DNA)
# Tested on: human PKK mRNA
# Assay: Antisense inhibition of human PKK mRNA in HepaRG cells, 3,000 nM (Example 1)
# Format: cell-based
# Details: relative to untreated control cells
# Procedure: Antisense oligonucleotides were designed targeting a PKK nucleic acid and were tested for their effects on PKK mRNA in vitro. HepaRG™ cells, which are terminally differentiated hepatic cells derived from a human hepatic progenitor cell line and retain many characteristics of primary human hepatocytes (Lubberstedt M. et al., J. Pharmacol. Toxicol. Methods 2011 63: 59-68), were used in the screen.
# The chimeric antisense oligonucleotides in the tables below were designed as 5-10-5 MOE gapmers. The gapmers are 20 nucleosides in length, wherein the central gap segment comprises of ten 2′-deoxynucleosides and is flanked by wing segments on the 5′ direction and the 3′ direction comprising five nucleosides each. Each nucleoside in the 5′ wing segment and each nucleoside in the 3′ wing segment has a 2′-O-methoxyethyl modification. The internucleoside linkages throughout each gapmer are phosphorothioate linkages. All cytosine residues throughout each gapmer are 5-methylcytosines. “Start site” indicates the 5′-most nucleoside to which the gapmer is targeted in the human gene sequence. “Stop site” indicates the 3′-most nucleoside to which the gapmer is targeted in the human gene sequence.
# Cultured HepaRG™ cells at a density of 20,000 cells per well were transfected using electroporation with 3,000 nM antisense oligonucleotide. After a treatment period of approximately 24 hours, RNA was isolated from the cells and PKK mRNA levels were measured by quantitative real-time PCR. Human primer probe set RTS3454 (forward sequence […], designated herein as SEQ ID NO: 20; reverse sequence […], designated herein as SEQ ID NO: 21; probe sequence […], designated herein as SEQ ID NO: 22) was used to measure mRNA levels. PKK mRNA levels were adjusted according to total RNA content, as measured by RIBOGREEN®. The antisense oligonucleotides were tested in a series of experiments that had similar culture conditions. Results are presented as percent inhibition of PKK, relative to untreated control cells.
# [1] = Table 1, PKK mRNA, HepaRG cells, 3,000 nM, electroporation, ~24 h
# [2] = Table 2, PKK mRNA, HepaRG cells, 3,000 nM, electroporation, ~24 h
# [3] = Table 4, HepaRG cells, electroporation with 3,000 nM antisense oligonucleotide, approx. 24 hours, PKK mRNA by RT-PCR (RTS3454)
# [4] = Table 3, HepaRG cells, electroporation with 3,000 nM antisense oligonucleotide, approx. 24 hours, PKK mRNA by RT-PCR (RTS3454)
substance,measurement,setting,value
530932 (antisense eT*eG*eT*e[5mC]*eA*d[5mC]*dT*dT*dA*dA*dA*dA*dA*dT*dG*eA*eA*e[5mC]*eG*eG) [compound 530932],% inhibition,[1],52%
531021 (eG*eT*e[5mC]*eT*eG*dA*d[5mC]*dA*dG*dA*dT*dT*dT*dA*dA*eA*eA*eT*eG*e[5mC]; antisense) [compound 531021],% inhibition,[2],50%
531038 (antisense e[5mC]*eA*eA*e[5mC]*eA*dG*dT*dT*dG*dG*dT*dA*dT*dA*dA*eA*eT*eT*eG*eT) [compound 531038],% inhibition,[2],22%
531211 (eT*eT*eG*eA*eT*dG*dT*d[5mC]*dA*dG*d[5mC]*dA*d[5mC]*dT*dG*eT*eT*eG*eA*e[5mC]; antisense) [compound 531211],% inhibition,[3],77%
530949 (antisense eG*eG*eT*eG*eT*dA*d[5mC]*dA*dT*dG*dG*dA*dA*dG*d[5mC]*eT*eA*e[5mC]*eA*eT) [compound 530949],% inhibition,[1],31%
531085 (eA*eG*eG*e[5mC]*eA*d[5mC]*dA*dG*dA*dG*d[5mC]*d[5mC]*dA*dG*d[5mC]*eA*e[5mC]*e[5mC]*e[5mC]*eA; antisense) [compound 531085],% inhibition,[4],9%
531173 (antisense eA*eA*eA*eA*eT*dA*dA*d[5mC]*dT*dT*d[5mC]*dA*d[5mC]*dT*dA*eG*eA*eG*e[5mC]*eT) [compound 531173],% inhibition,[3],22%
531081 (eT*eG*eG*eT*eT*dT*dT*dT*dG*dG*dA*dA*dT*dT*d[5mC]*eT*eG*eA*eA*eA; antisense) [compound 531081],% inhibition,[2],14%
531202 (eA*eT*eT*eA*eA*dT*dA*dA*dG*d[5mC]*dA*dT*d[5mC]*dT*d[5mC]*eT*e[5mC]*eT*eG*eA; antisense) [compound 531202],% inhibition,[3],31%
531028 (antisense eA*eA*eT*eT*e[5mC]*dA*dA*dA*dG*dG*dA*dG*d[5mC]*d[5mC]*dT*eG*eG*eA*eG*eT) [compound 531028],% inhibition,[2],56%
530951 (antisense e[5mC]*eA*eA*eA*e[5mC]*dA*d[5mC]*d[5mC]*dT*dT*dG*dG*dG*dT*dG*eG*eA*eA*eT*eG) [compound 530951],% inhibition,[1],49%
530940 (antisense eT*eA*eG*e[5mC]*eA*dA*dA*d[5mC]*dA*dA*dG*dG*dA*dA*dA*eT*eG*eA*eA*eA) [compound 530940],% inhibition,[1],7%
531097 (eA*e[5mC]*e[5mC]*eA*eA*dG*d[5mC]*dT*d[5mC]*dA*dG*d[5mC]*d[5mC]*dT*d[5mC]*e[5mC]*eA*eA*e[5mC]*eT; antisense) [compound 531097],% inhibition,[4],41%
531130 (antisense eT*eT*e[5mC]*eT*eG*dT*dG*dT*d[5mC]*dA*dA*dT*dT*dA*dT*eA*eA*eA*e[5mC]*eA) [compound 531130],% inhibition,[4],0%
531018 (eG*eA*e[5mC]*e[5mC]*e[5mC]*dA*d[5mC]*dT*dG*dG*dT*dG*dT*d[5mC]*d[5mC]*eT*eA*eT*eG*eA; antisense) [compound 531018],% inhibition,[2],54%
531135 (antisense eA*eA*eT*eG*eT*dT*dG*dT*dG*dA*dA*dT*dA*d[5mC]*d[5mC]*eA*eT*e[5mC]*e[5mC]*e[5mC]) [compound 531135],% inhibition,[4],16%
531077 (eA*eT*eG*e[5mC]*e[5mC]*dA*d[5mC]*dT*d[5mC]*dT*d[5mC]*d[5mC]*dA*dT*dG*e[5mC]*eT*eT*eT*eG; antisense) [compound 531077],% inhibition,[2],51%
531163 (antisense eT*e[5mC]*eA*eG*e[5mC]*dA*dG*dA*dA*dA*dT*d[5mC]*dA*dT*dG*eT*eA*eG*eG*e[5mC]) [compound 531163],% inhibition,[3],60%
531141 (antisense eT*eG*e[5mC]*eA*eA*dG*dG*d[5mC]*dA*dT*dG*dT*dG*dT*dG*e[5mC]*eA*e[5mC]*eA*eA) [compound 531141],% inhibition,[4],47%
531229 (e[5mC]*eT*eT*e[5mC]*eA*dA*dA*dG*d[5mC]*d[5mC]*dA*dG*d[5mC]*dA*dG*eT*eG*eT*eA*eA; antisense) [compound 531229],% inhibition,[3],69%
531072 (eG*e[5mC]*eT*e[5mC]*eA*dG*dA*dA*dT*dT*dT*dG*dA*d[5mC]*dT*eT*eG*eA*eA*e[5mC]; antisense) [compound 531072],% inhibition,[2],64%
531075 (e[5mC]*e[5mC]*eA*eT*eG*d[5mC]*dT*dT*dT*dG*d[5mC]*dA*dG*dA*dT*eG*eA*eG*eG*eA; antisense) [compound 531075],% inhibition,[2],64%
531060 (antisense eT*eG*eG*eT*eG*dA*dT*dG*d[5mC]*d[5mC]*d[5mC]*dA*d[5mC]*d[5mC]*dA*eA*eA*e[5mC]*eG*e[5mC]) [compound 531060],% inhibition,[2],35%
531222 (eG*eG*e[5mC]*eA*eA*dG*d[5mC]*dT*dG*dT*dA*d[5mC]*dA*dA*dG*eA*eA*eA*eA*eA; antisense) [compound 531222],% inhibition,[3],19%
531230 (e[5mC]*eT*eT*eA*e[5mC]*dT*dG*dG*dG*d[5mC]*dT*dA*dA*dA*dA*eT*e[5mC]*eA*eA*eG; antisense) [compound 531230],% inhibition,[3],46%
531208 (eT*e[5mC]*e[5mC]*eA*eG*dA*dA*dT*dA*d[5mC]*dT*dG*d[5mC]*d[5mC]*d[5mC]*e[5mC]*eA*eT*e[5mC]*eT; antisense) [compound 531208],% inhibition,[3],23%
531006 (eG*e[5mC]*eT*eT*eG*dT*dT*dT*dT*dT*dG*dT*dT*dG*dT*eG*e[5mC]*eA*eG*eA; antisense) [compound 531006],% inhibition,[1],49%
531213 (e[5mC]*eA*eA*eA*eA*dT*dT*dA*dA*dT*dT*dG*dT*dG*d[5mC]*eA*eT*eA*eA*eT; antisense) [compound 531213],% inhibition,[3],13%
531217 (eG*eT*eG*eG*eA*dA*dT*dA*dA*dA*d[5mC]*d[5mC]*dA*dT*dA*eA*eT*e[5mC]*eT*eA; antisense) [compound 531217],% inhibition,[3],47%
531030 (antisense eA*eA*eT*eT*e[5mC]*dA*dG*dT*dG*dT*dA*dA*dT*dT*d[5mC]*eA*eA*eA*eG*eG) [compound 531030],% inhibition,[2],24%
531043 (antisense eA*eT*eT*eT*eG*dT*dT*dA*d[5mC]*d[5mC]*dA*dA*dA*dG*dG*eA*eA*eT*eA*eT) [compound 531043],% inhibition,[2],27%
531132 (antisense eA*eG*eT*eG*eA*dG*dG*dT*dT*dA*d[5mC]*dT*d[5mC]*dA*d[5mC]*e[5mC]*eA*eG*eA*eG) [compound 531132],% inhibition,[4],0%
30929 (antisense eA*eA*e[5mC]*eG*eG*dT*d[5mC]*dT*dT*d[5mC]*dA*dA*dG*d[5mC]*dT*eG*eT*eT*e[5mC]*eT) [compound 30929],% inhibition,[1],59%
531011 (e[5mC]*e[5mC]*eA*eA*eG*dA*dA*dG*dA*dG*dT*dT*dT*dG*dT*eT*e[5mC]*e[5mC]*eT*e[5mC]; antisense) [compound 531011],% inhibition,[2],0%
531029 (antisense eA*eG*eT*eG*eT*dA*dA*dT*dT*d[5mC]*dA*dA*dA*dG*dG*eA*eG*e[5mC]*e[5mC]*eT) [compound 531029],% inhibition,[2],59%
530980 (antisense eT*eT*eG*e[5mC]*eA*dG*dG*dT*dT*dA*dA*dA*dA*dG*dG*e[5mC]*eT*eA*eT*eA) [compound 530980],% inhibition,[1],29%
531076 (eA*e[5mC]*eT*e[5mC]*eT*d[5mC]*d[5mC]*dA*dT*dG*d[5mC]*dT*dT*dT*dG*e[5mC]*eA*eG*eA*eT; antisense) [compound 531076],% inhibition,[2],68%
530936 (antisense eT*eG*e[5mC]*eT*eT*dG*d[5mC]*dT*dT*dG*dA*dA*dT*dA*dA*eA*eA*eT*e[5mC]*eA) [compound 530936],% inhibition,[1],27%
530952 (antisense e[5mC]*eT*eG*eA*eA*dT*dA*dG*d[5mC]*dA*dA*dA*d[5mC]*dA*d[5mC]*e[5mC]*eT*eT*eG*eG) [compound 530952],% inhibition,[1],38%
530995 (eA*eG*eT*e[5mC]*eT*d[5mC]*dT*dT*dG*dG*d[5mC]*dA*dA*dA*d[5mC]*eA*eT*eT*e[5mC]*eA; antisense) [compound 530995],% inhibition,[1],49%
530938 (antisense eG*eG*eA*eA*eA*dT*dG*dA*dA*dA*dT*dA*dA*dG*dT*eT*eG*e[5mC]*eT*eT) [compound 530938],% inhibition,[1],11%
530973 (antisense eG*eA*eG*eG*eA*dG*dT*dA*dG*dA*dG*dG*dA*dA*d[5mC]*eT*eT*eG*eG*eT) [compound 530973],% inhibition,[1],52%
531143 (antisense e[5mC]*eA*eT*eG*eG*dA*dA*dA*dA*dA*dT*dT*dA*dA*dG*e[5mC]*eT*e[5mC]*eA*eT) [compound 531143],% inhibition,[4],0%
